Measurements: patent publication US5196421A, “Excitatory amino acid receptor antagonists in methods for the use thereof” (priority 1992, dated 1993)
“And” between values parts separate entries of the source, which are not always exact repeats. Identical values can stand only once.

What was measured:
[1] = biological target: T1, Strychnine-Insensitive [^3 H]Glycine Binding Sites, washed membranes of rat brain cortex (Rattus norvegicus, UniProt P35439); assay: biochemical; details: for inhibition at 10 µM: 1 h, read-out: [^3 H]-Glycine Binding % DSPL10 @ 10 μM, 10 μM test compound, 60 minutes on ice; for [^3 H]-Glycine Binding % DSPL10 @ 10 μM: 10 μM test compound, 60 minutes on ice
T1 construct: washed membranes of rat brain cortex; from tissue; host or cells: brain cortex membranes, male Sprague-Dawley rats (150-175 g)
Procedure: (§1) Referring to Table IV, there are shown the results obtained in testing a representative number of these compounds. In Table IV, the activity of the compounds for EAA receptor binding is indicated. Compounds were evaluated for their ability to displace [^3 H]-CGS191755, [^3 H]-glycine, [^3 H]-AMPA and [^3 H]-kainate at a screening concentration of 10 μM.
(§2) Binding assays, except for glycine binding, were performed in accordance with the methods described in Schoepp et al., J. Pharmacology and Exp. Therap., Vol. 255, No. 3, pp. 1301-1308 (1990). For all binding assays, male Sprague-Dawley rats (150-175 g) were used. Displacement of the specific binding of ^3 H]CGS19755 (10 nM) to Triton-X-treated synaptosomal membranes of rat forebrain was used to determine NMDA receptor affinity. Nonspecific binding was determined using 10 μM L-glutamate. Samples were incubated in an ice bath for 30 minutes, and bound ligand was separated from the free ligand by rapid filtration through Whatman GF/B glass fiber filters.
The compounds were examined for their ability to displace [^3 H]-glycine from washed membranes of rat brain cortex according to the methods of Shinohara et al., "Ontogeny of Strychnine-Insensitive [^3 H]Glycine Binding Sites in Rat Forebrain", Neurosci. Lett. 105 (1990) 307-311. In each assay, […] [^3 H]-glycine and 25 μg tissue were incubated with test compounds (10 μM in a total volume of 0.5 ml for 60 minutes on ice; incubations were terminated by centrifugation. Non-specific binding was defined as that remaining in the presence of 10 μM D-serine.

[2] = test system: AMPA receptor ([^3 H]AMPA binding, crude membranes of rat forebrain); assay: [^3 H]-AMPA displacement, EAA receptor binding; details: 10 μM test compound, [^3 H]AMPA 5 nM, 100 mM KSCN
Procedure: as §1, §2
The binding of [^3 H]AMPA (5 nM) was conducted with crude membranes of rat forebrain in the presence of 100 mM KSCN, as described by Nielsen et al., "Studies on Receptor-Active Conformations of Excitatory Amino Acid Agonists and Antagonists," Eur. J. Med. Chem. Chim. Ther. 21:433-437 (1986). Nonspecific binding was determined with 10 μM nonlabeled AMPA.

[3] = test system: kainate (KA) receptor ([^3 H]Kainate binding, washed synaptosomal membranes from the rat forebrain); assay: [^3 H]-kainate displacement, EAA receptor binding; details: 10 μM test compound, [^3 H]Kainate 5 nM, pH 7.4, 30 min
Procedure: as §1, §2
[^3 H]Kainate binding was performed using washed synaptosomal membranes from the rat forebrain, prepared as described by Simon et al., "Binding of [^3 H]Kainic Acid, an Analogue of L-Glutamate, to Brain Membranes," J. Neurochem. 26:141-147 (1976). [^3 H]Kainate (5 nM) was added to 50 mM Tris-HCl buffer (pH 7.4 at 4°) containing 200-300 μg/ml of tissue protein. Samples were incubated for 30 minutes in an ice bath and then rapidly filtered using a Brandel cell harvester and Whatman GF/C filters. Filters were washed twice with 3 ml of cold buffer. Nonspecific binding was determined using 100 μM nonlabeled kainate.

SMILES	inhibition at 10 µM [1]	AMPA % DSPL @ 10 μM [2]	KA % DSPL @ 10 μM [3]	AMPA % DSPL @ 10 μM ([2]; 10 µM)	[^3 H]-Glycine Binding % DSPL10 @ 10 μM ([1]; 60 min, 10 µM)	KA % DSPL @ 10 μM ([3]; 10 µM)	[^3 H]-Glycine Binding % DSPL10 @ 10 μM [1]
Cc1nnc2cnc3cc(Cl)c(Cl)cc3n12 [Compound 1, 1-methyl-7,8-dichloro-1,2,4-triazolo[4,3-a]quinoxaline]	0%	35.1%	16.8%	–	–	–	–
Cc1nnc2c(=O)[nH]c3cc(Cl)c(Cl)cc3n12 [Compound 2, 1-methyl-7,8-dichloro-1,2,4-triazolo[4,3-a]quinoxalin-4(5H)-one]	18%	–	28.0%	78.3% and 75.1%	–	–	–
CCc1nnc2cnc3cc(Cl)c(Cl)cc3n12 [Compound 3, 1-ethyl-7,8-dichloro-1,2,4-triazolo[4,3-a]quinoxaline]	63%	7.9%	12.0%	–	–	–	–
CCc1nnc2c(=O)[nH]c3cc(Cl)c(Cl)cc3n12 [Compound 4, 1-ethyl-7,8-dichloro-1,2,4-triazolo[4,3-a]quinoxalin-4(5H)-one]	53%	–	21.4%	55.1% and 52.3%	–	–	–
CCCc1nnc2cnc3cc(Cl)c(Cl)cc3n12 [Compound 5, 1-n-propyl-7,8-dichloro-1,2,4-triazolo[4,3-a]quinoxaline]	2%	-1.6%	3.9%	–	–	–	–
CCCc1nnc2c(=O)[nH]c3cc(Cl)c(Cl)cc3n12 [Compound 6, 1-n-propyl-7,8-dichloro-1,2,4-triazolo[4,3-a]quinoxalin-4(5H)-one]	75%	–	32.1%	77.1% and 85.6%	–	–	–
CCCCc1nnc2cnc3cc(Cl)c(Cl)cc3n12 [Compound 7, 1-n-butyl-7,8-dichloro-1,2,4-triazolo[4,3-a]quinoxaline]	-2%	4.2%	-6.4%	–	–	–	–
CCCCc1nnc2c(=O)[nH]c3cc(Cl)c(Cl)cc3n12 [Compound 8, 1-n-butyl-7,8-dichloro-1,2,4-triazolo[4,3-a]quinoxalin-4(5H)-one]	60%	–	33.8%	–	–	–	–
FC(F)(F)c1nnc2cnc3cc(Cl)c(Cl)cc3n12 [Compound 9, 1-trifluoromethyl-7,8-dichloro-1,2,4-triazolo[4,3-a]quinoxaline]	-6%	–	–	–	–	–	–
O=c1[nH]c2cc(Cl)c(Cl)cc2n2c(C(F)(F)F)nnc12 [Compound 10, 1-trifluoromethyl-7,8-dichloro-1,2,4-triazolo [4,3-a]quinoxalin-4(5H)-one]	40%	–	12.5%	56.8% and 38.5%	–	–	–
Clc1cc2ncc3nnc(-c4ccccc4)n3c2cc1Cl [Compound 11, 1-phenyl-7,8-dichloro-1,2,4-triazolo[4,3-a]quinoxaline]	-3%	1.7%	9.1%	–	–	–	–
O=c1[nH]c2cc(Cl)c(Cl)cc2n2c(-c3ccccc3)nnc12 [Compound 12, 1-Phenyl-7,8-dichloro-1,2,4-triazolo[4,3-a]quinoxalin-4(5H)-one]	-1%	3.6%	8.2%	–	–	–	–
O=c1[nH]c2cc(Cl)c(Cl)cc2n2cnnc12 [Compound 12a, 7,8-dichloro-1,2,4-triazolo[4,3-a]quinoxalin-4(5H)-one]	–	–	–	64.3% and 67.9%	79% and 42%	–	–
O=c1[nH]c2cc(Cl)cc(Cl)c2n2cnnc12 [Compound 14a, 7,9-dichloro-1,2,4-triazolo[4,3a]quinoxalin-4(5H)-one]	87%	–	–	–	–	–	–
Brc1ccc2ncc3nncn3c2c1 [Compound 15, 8-bromo-1,2,4-triazolo[4,3-a]quinoxaline]	-3%	1.6%	-4.3%	–	–	–	–
O=[N+]([O-])c1ccc2c(c1)ncc1nncn12 [Compound 16, 7-nitro-1,2,4-triazolo[4,3-a]quinoxaline]	-5%	1.7%	3.0%	–	–	–	–

SMILES	inhibition at 10 µM [1]	AMPA % DSPL @ 10 μM [2]	KA % DSPL @ 10 μM [3]	AMPA % DSPL @ 10 μM ([2]; 10 µM)	[^3 H]-Glycine Binding % DSPL10 @ 10 μM ([1]; 60 min, 10 µM)	KA % DSPL @ 10 μM ([3]; 10 µM)	[^3 H]-Glycine Binding % DSPL10 @ 10 μM [1]
O=c1[nH]c2cc([N+](=O)[O-])ccc2n2cnnc12 [Compound 17, 7-nitro-1,2,4-triazolo[4,3-a]quinoxalin-4(5H)-one]	52%	–	34.7%	85.1% and 77.4%	–	–	–
O=c1[nH]c2cc([N+](=O)[O-])c([N+](=O)[O-])cc2n2cnnc12 [Compound 18, 7,8-dinitro-1,2,4-triazolo[4,3-a]quinoxalin-4(5H)-one]	50%	–	15.6%	77.4% and 55.0%	–	–	–
O=c1[nH]c2ccc(Br)cc2n2nnnc12 [Compound 21, 8-bromotetrazolo[1,5-a]quinoxalin-4(5H)-one]	6%	10.2%	30.8%	–	–	–	–
O=c1[nH]c2ccc([N+](=O)[O-])cc2n2nnnc12 [Compound 22, 8-nitrotetrazolo[1,5-a]quinoxalin-4(5H)-one]	0%	0.7%	0.5%	–	–	–	–
O=[N+]([O-])c1ccc2c(c1)ncc1nnnn12 [Compound 23, 7-nitrotetrazolo[1,5-a]quinoxaline]	-1%	1.0%	-3.8%	–	–	–	–
O=c1[nH]c2cc([N+](=O)[O-])ccc2n2nnnc12 [Compound 24, 7-nitrotetrazolo[1,5-a]quinoxalin-4(5H)-one]	2%	38.4%	2.8%	–	–	–	–
O=c1[nH]c2cc([N+](=O)[O-])c([N+](=O)[O-])cc2n2nnnc12 [Compound 25, 7,8-dinitrotetrazolo[1,5-a]quinoxalin-4(5H)-one]	3%	–	–	–	–	0.4% and -2.1%	–
[N-]=[N+]=Nc1cc2c(cc1F)ncc1nnnn12 [Compound 26, 7-fluoro-8-azidotetrazoloquinoxaline]	–	-1.8%	5.5%	–	–	–	-2%
[N-]=[N+]=Nc1cc2c(cc1F)[nH]c(=O)c1nnnn12 [Compound 27, 7-fluoro-8-azidotetrazoloquinoxalin-4(5H)-one]	5%	1.7%	2.5%	–	–	–	–
O=c1[nH]c2cc(Cl)c(Cl)cc2n2nnnc12 [Compound 27a, 7,8-dichlorotetrazolo[1,5-a]quinoxalin-4(5H)-one]	37%	38%	–	–	–	–	–
O=c1[nH]c2ccc(Br)cc2c2ccnn12 [Compound 28, 9-bromopyrazolo[1,5-c]quinazolin-5(6H)-one]	4%	20.7%	2.6%	–	–	–	–
O=c1[nH]c2ccc(Cl)cc2c2ccnn12 [Compound 29, 9-Chloropyrazolo[1,5-c]quinazolin 5(6H)-one]	5%	23.1%	0.3%	–	–	–	–
O=c1[nH]c2c(Cl)cccc2c2ccnn12 [Compound 30, 7-Chloropyrazolo[1,5-c]quinazolin-5(6H)-one]	0%	14.8%	-0.4%	–	–	–	–
O=c1[nH]c2cc(Cl)ccc2c2ccnn12 [Compound 31, 8-chloropyrazolo[1,5-c]quinazolin-5(6H)-one]	42%	46%	11.5%	–	–	–	–
O=c1[nH]c2cc(Cl)c(Cl)cc2c2ccnn12 [Compound 32, 8,9-dichloropyrazolo[1,5-c]quinazolin-5(6H)-one]	–	–	-0.1%	4.9% and 9.3%	–	–	–
